This experiment has as its system silk fibroin powder. In words: Evaluation of adsorptivity of groups containing aromatic rings to proteins having a β-sheet structure. The format is binding. Conditions: for Adsorption rate to fibroin (%): 0.02 mM, 0.15 mL methanol solution on 10 mg silk fibroin powder, air-dried, 0.15 mL water, stirred 5 minutes, supernatant absorbance; for Adsorptivity: class of adsorption rate to fibroin. The procedure:
After distillation of methanol by air-drying, 0.15 mL of water was added. After stirring for 5 minutes, the supernatant was collected. The concentration of groups containing aromatic rings in the collected supernatant liquid and the percentage of adsorption of groups containing aromatic rings to fibroin were calculated by absorbance measurement, and the adsorptivity of groups containing aromatic rings to proteins having a β-sheet structure was evaluated by the following criteria.
“Evaluation A” and “Evaluation B” indicate the level at which groups containing aromatic rings adsorb strongly to proteins having a β-sheet structure, and “Evaluation C” indicates the low adsorptivity of groups containing aromatic rings.
• A: 90% or more • B: 60% or more but less than 90% • C: Less than 60%

Consider `O=C(O)CCNc1ccc(-c2nc3ccccc3s2)cc1` [Compound 2], for which the “Adsorption rate to fibroin (%)” value is reported as 79% and the Adsorptivity result is recorded as “B (60% or more but less than 90%)”.

In the case of `O=C(O)CCOc1ccccc1-c1nc2ccccc2s1` [Compound 4], the “Adsorption rate to fibroin (%)” value is 71% and the Adsorptivity result is “B (60% or more but less than 90%)”.

For the compound Thioflavin T acid [reference compound], the “Adsorption rate to fibroin (%)” value amounted to 91% and the Adsorptivity entry is recorded as “A (90% or more)”.
